Holding throughout (assay type): cell-based
For assay [1], the system named is tumor cell. The assay can be described thus: Matrigel outgrowth assay/branching assay (Table Va). In outline:
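Step one: Matrigel (3 mg/ml) is set for 1 h at 37° C. Step two: 5000 cells per well go on in medium with compound (0.78–3.125 μM) or DMSO. Step three: images at 48, 72 and 96 h are scored for complete loss of branching.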

The subject of assay [2] is cells. The assay is described as follows: Boyden chamber migration assay (Table VI). As to conditions: Homo sapiens, Hs-578T, 16 h, Hs578T cells; 16 h migration. In outline: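 20000 cells seeded in the upper compartment in 0% FCS plus 0.1% BSA and left 16 h to migrate through […] membrane toward 10% FCS medium below. Non-migrated cells swabbed off; cells on the filter underside fixed and counted.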

Assay [3] relates to viable cells in culture. The assay can be described thus: Cell viability assay at 10 μM (CellTiter-Glo, Table VII).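 Further: graded A 0-20%; B 21-40%; C 41-60%; D over 60% viable cells relative to DMSO control.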 As to conditions: compound 10 μM, 72 h. In outline: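 Viable cell number was measured with the CellTiter-Glo Luminescent Cell Viability Assay (Promega), following the manufacturer's protocol, which quantifies ATP as a marker of metabolically active cells. In 96-well plates, 1000 cells/well in 100 μl medium were exposed to compound at 10 μM, or to DMSO control, for 72 h. Values were calculated relative to DMSO-control ATP.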
In general terms: ATP-based viability assays read luminescence as a measure of living cells.

Where [4] appears, read: Homo sapiens, C8161 cells, read-out: Total branching inhibition in Matrigel C8161.
The mark [5] stands for this setting: Homo sapiens, Hs-578T, Hs578T cells, read-out: Total branching inhibition in Matrigel Hs578T.
Setting [6] is: U118 cells, read-out: Total branching inhibition in Matrigel U118.
The mark [7] stands for this setting: U138 cells, read-out: Total branching inhibition in Matrigel U138.
The mark [8] stands for this setting: Homo sapiens, HCT-116, HCT116 def, read-out: percentage (%) of viable cells HCT 116def.
The mark [9] stands for this setting: Homo sapiens, HCT-116, HCT116 wt, read-out: percentage (%) of viable cells HCT 116wt.
Setting [10] is: Homo sapiens, HT-29, HT29, read-out: percentage (%) of viable cells HT29.
The mark [11] stands for this setting: Homo sapiens, NCI-H358, H358, read-out: percentage (%) of viable cells H358.
Where [12] appears, read: Homo sapiens, NCI-H1650, H1650, read-out: percentage (%) of viable cells H1650.
[13] abbreviates: Homo sapiens, NCI-H1666, H1666, read-out: percentage (%) of viable cells H1666.
Where [14] appears, read: Homo sapiens, NCI-H1975, H1975, read-out: percentage (%) of viable cells H1975.
Where [15] appears, read: Homo sapiens, NCI-H1993, H1993, read-out: percentage (%) of viable cells H1993.
The mark [16] stands for this setting: Homo sapiens, A549, read-out: percentage (%) of viable cells A549.
Setting [17] is: Homo sapiens, HCC827, read-out: percentage (%) of viable cells HCC827.
Where [18] appears, read: Homo sapiens, SW480, read-out: percentage (%) of viable cells SW480.
[19] abbreviates: RKO, read-out: percentage (%) of viable cells RKO.

IC50 and viability data for eight compounds are collected here from patent US9169241B2, “Quinolinyloxyphenylsulfonamides” (Max-Planck-Gesellschaft Zur Forderung der Wissenschaften …, priority 2009, dated 2015).

Like-named read-outs stand apart in the source and are kept apart here. A value given as a limit tells only on which side of the number the result lay.

On to `COc1cc2c(Oc3ccc(NS(=O)(=O)c4cc(C)ccc4F)cc3F)ccnc2cc1OCCCN1CCCC(C)C1` (stereo not shown) [Example 55], for which the IC50 in assay [1] (setting [4]) was not above 5 µM; in assay [1] (setting [5]), not above 5 µM; in assay [1] (setting [6]), not above 5 µM; in assay [1] (setting [7]), 5 to 50 µM; in assay [2], not above 5 µM. The viability at 10 µM in assay [3] (setting [8]) is 21 to 40%; in assay [3] (setting [9]), 0 to 20%; in assay [3] (setting [10]) it was 21 to 40%; in assay [3] (setting [11]), 0 to 20%; in assay [3] (setting [12]) it was 0 to 20%; in assay [3] (setting [13]), 0 to 20%. Moreover, the viability at 10 µM in assay [3] (setting [14]) was more than 60%; in assay [3] (setting [15]), 0 to 20%; in assay [3] (setting [16]), 21 to 40%; in assay [3] (setting [17]), 41 to 60%; in assay [3] (setting [18]), 21 to 40%; in assay [3] (setting [19]) it was 41 to 60%.

`COc1cc2c(Oc3ccc(NS(=O)(=O)c4ccc(C)c(F)c4)cc3F)ccnc2cc1OCCCN1CCCC(C)C1` (stereo not shown) [Example 56, 3-Fluoro-N-(3-fluoro-4-{6-methoxy-7-[3-(3-methyl-piperidin-1-yl)-propoxy]-quinolin-4-yloxy}-phenyl)-4-methyl-benzenesulfonamide]: the IC50 was not above 5 µM in assay [1] (setting [4]); 5 to 50 µM in assay [1] (setting [5]); not above 5 µM in assay [1] (setting [6]); 5 to 50 µM in assay [1] (setting [7]); not above 5 µM in assay [2]. Besides, the viability at 10 µM in assay [3] (setting [8]) fell in the range of 21 to 40%; in assay [3] (setting [9]), 21 to 40%; in assay [3] (setting [10]), 0 to 20%; in assay [3] (setting [11]), 0 to 20%; in assay [3] (setting [12]), 41 to 60%; in assay [3] (setting [13]) it was 21 to 40%. The viability at 10 µM in assay [3] (setting [14]) was 0 to 20%; in assay [3] (setting [15]), 41 to 60%; in assay [3] (setting [16]) it was more than 60%; in assay [3] (setting [17]), 21 to 40%; in assay [3] (setting [18]), 0 to 20%; in assay [3] (setting [19]), 21 to 40%.

In the case of `COc1cc2c(Oc3ccc(NS(=O)(=O)c4ccc(F)c(Cl)c4)cc3F)ccnc2cc1OCCCN1CCCC(C)C1` (stereo not shown) [Example 57, 3-Chloro-4-fluoro-N-(3-fluoro-4-{6-methoxy-7-[3-(3-methyl-piperidin-1-yl)-propoxy]-quinolin-4-yloxy}-phenyl)-benzenesulfonamide], the IC50 in assay [1] (setting [4]) was 5 to 50 µM; in assay [1] (setting [5]) it was not above 5 µM; in assay [1] (setting [6]), not above 5 µM; in assay [1] (setting [7]) it was not above 5 µM; in assay [2], 5 to 50 µM. For the same compound, the viability at 10 µM was 21 to 40% in assay [3] (setting [8]); more than 60% in assay [3] (setting [9]); 0 to 20% in assay [3] (setting [10]); 21 to 40% in assay [3] (setting [11]); 41 to 60% in assay [3] (setting [12]); 41 to 60% in assay [3] (setting [13]). Besides, the viability at 10 µM in assay [3] (setting [14]) is 0 to 20%; in assay [3] (setting [15]) it was 21 to 40%; in assay [3] (setting [16]) it was more than 60%; in assay [3] (setting [17]) it was more than 60%; in assay [3] (setting [18]) it was 0 to 20%; in assay [3] (setting [19]), 0 to 20%.

As to `COc1cc2c(Oc3ccc(NS(=O)(=O)c4cccc5ccccc45)cc3F)ccnc2cc1OCCCN1CCCC(C)C1` (stereo not shown) [Example 58, Naphthalene-1-sulfonic acid (3-fluoro-4-{6-methoxy-7-[3-(3-methyl-piperidin-1-yl)-propoxy]-quinolin-4-yloxy}-phenyl)-amide], the IC50 is not above 5 µM in assay [1] (setting [4]); not above 5 µM in assay [1] (setting [5]); not above 5 µM in assay [1] (setting [6]); 5 to 50 µM in assay [1] (setting [7]); not above 5 µM in assay [2]. Besides, the viability at 10 µM in assay [3] (setting [8]) is 21 to 40%; in assay [3] (setting [9]), 0 to 20%; in assay [3] (setting [10]), 0 to 20%; in assay [3] (setting [11]), 21 to 40%; in assay [3] (setting [12]) it was more than 60%; in assay [3] (setting [13]), 21 to 40%. In addition, the viability at 10 µM in assay [3] (setting [14]) is 0 to 20%; in assay [3] (setting [15]), 41 to 60%; in assay [3] (setting [16]), 41 to 60%; in assay [3] (setting [17]), more than 60%; in assay [3] (setting [18]) it was 0 to 20%; in assay [3] (setting [19]), 0 to 20%.

For the compound `COc1cc2c(Oc3ccc(NS(=O)(=O)c4cccc(Oc5ccccc5)c4)cc3F)ccnc2cc1OCCCN1CCCC(C)C1` (stereo not shown) [Example 59, N-(3-Fluoro-4-{6-methoxy-7-[3-(3-methyl-piperidin-1-yl)-propoxy]-quinolin-4-yloxy}-phenyl)-3-phenoxy-benzenesulfonamide], the IC50 was not above 5 µM in assay [1] (setting [4]); not above 5 µM in assay [1] (setting [5]); 5 to 50 µM in assay [1] (setting [6]); not above 5 µM in assay [1] (setting [7]); not above 5 µM in assay [2]. The viability at 10 µM in assay [3] (setting [8]) is 0 to 20%; in assay [3] (setting [9]), 0 to 20%; in assay [3] (setting [10]), 0 to 20%; in assay [3] (setting [11]) it was 21 to 40%; in assay [3] (setting [12]), more than 60%; in assay [3] (setting [13]) it was 41 to 60%. The viability at 10 µM lay within 21 to 40% in assay [3] (setting [14]); 0 to 20% in assay [3] (setting [15]); 21 to 40% in assay [3] (setting [16]); 21 to 40% in assay [3] (setting [17]); 0 to 20% in assay [3] (setting [18]); 0 to 20% in assay [3] (setting [19]).

Turning to `COc1cc2c(Oc3ccc(NS(=O)(=O)c4ccc(Cl)s4)cc3F)ccnc2cc1OCCCN1CCCC(C)C1` (stereo not shown) [Example 63, 5-Chloro-thiophene-2-sulfonic acid (3-fluoro-4-{6-methoxy-7-[3-(3-methyl-piperidin-1-yl)-propoxy]-quinolin-4-yloxy}-phenyl)-amide], the IC50 was 5 to 50 µM in assay [1] (setting [4]); not above 5 µM in assay [1] (setting [5]); not above 5 µM in assay [1] (setting [6]); not above 5 µM in assay [1] (setting [7]); not above 5 µM in assay [2]. For the same compound, the viability at 10 µM in assay [3] (setting [8]) fell in the range of 21 to 40%; in assay [3] (setting [9]), 0 to 20%; in assay [3] (setting [10]), 21 to 40%; in assay [3] (setting [11]), 0 to 20%; in assay [3] (setting [12]), 41 to 60%; in assay [3] (setting [13]) it was 41 to 60%. For the same compound, the viability at 10 µM in assay [3] (setting [14]) was 0 to 20%; in assay [3] (setting [15]) it was 0 to 20%; in assay [3] (setting [16]), 21 to 40%; in assay [3] (setting [17]), 21 to 40%; in assay [3] (setting [18]), 0 to 20%; in assay [3] (setting [19]) it was more than 60%.

Take `COc1cc2c(Oc3ccc(NS(=O)(=O)c4cccc(C)c4)cc3F)ccnc2cc1OCCCN1CCCC(C)C1` (stereo not shown) [Example 70, N-(3-Fluoro-4-{6-methoxy-7-[3-(3-methyl-piperidin-1-yl)-propoxy]-quinolin-4-yloxy}-phenyl)-3-methyl-benzenesulfonamide]: the IC50 in assay [1] (setting [4]), in assay [1] (setting [5]), in assay [1] (setting [6]), in assay [1] (setting [7]) and in assay [2] was not above 5 µM each time. For the same compound, the viability at 10 µM in assay [3] (setting [8]) was in the range of 21 to 40%; in assay [3] (setting [9]), 41 to 60%; in assay [3] (setting [10]), 21 to 40%; in assay [3] (setting [11]), 21 to 40%; in assay [3] (setting [12]), 41 to 60%; in assay [3] (setting [13]) it was 21 to 40%. The viability at 10 µM in assay [3] (setting [14]) was in the range of 0 to 20%; in assay [3] (setting [15]) it was 0 to 20%; in assay [3] (setting [16]), 21 to 40%; in assay [3] (setting [17]) it was 21 to 40%; in assay [3] (setting [18]) it was 21 to 40%; in assay [3] (setting [19]), 0 to 20%.

Regarding `COc1cc2c(Oc3ccc(NS(=O)(=O)c4ccc(F)c(C#N)c4)cc3F)ccnc2cc1OCCCN1CCCC(C)C1` (stereo not shown) [Example 72, 3-Cyano-4-fluoro-N-(3-fluoro-4-{6-methoxy-7-[3-(3-methyl-piperidin-1-yl)-propoxy]-quinolin-4-yloxy}-phenyl)-benzenesulfonamide], the IC50 in assay [1] (setting [4]), in assay [1] (setting [5]), in assay [1] (setting [6]), in assay [1] (setting [7]) and in assay [2] was not above 5 µM each time. In addition, the viability at 10 µM in assay [3] (setting [8]) is 41 to 60%; in assay [3] (setting [9]) it was 21 to 40%; in assay [3] (setting [10]) it was 0 to 20%; in assay [3] (setting [11]), 21 to 40%; in assay [3] (setting [12]), 41 to 60%; in assay [3] (setting [13]), 21 to 40%. The viability at 10 µM in assay [3] (setting [14]) is 41 to 60%; in assay [3] (setting [15]), 0 to 20%; in assay [3] (setting [16]) it was more than 60%; in assay [3] (setting [17]), 41 to 60%; in assay [3] (setting [18]) it was 0 to 20%; in assay [3] (setting [19]), 0 to 20%.
